What was measured:
liver (LV) = experiment: Whole organ transcriptome (GeneChip microarray) of liver 6 h after adjuvant administration: sDEGs, hierarchical clustering; assay type: in vivo, C57BL/6 mice; conditions: i.d. administration, liver, 6 h after adjuvant
[1] = system: adjuvant-associated biological themes in LV, SP, LN
Procedure, shortened: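 Per-mouse whole-organ transcriptomes; genes with eij/ei(c)>2.0 tested for theme enrichment via TargetMine (GO, KEGG, Reactome, others), Fisher's exact test, Holm-Bonferroni correction. Themes shared by all three mice kept at p<0.05, using the smallest p. Score per adjuvant-associated term = Σ−log(p) of matching themes.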

spleen (SP) = experiment: Whole organ transcriptome (GeneChip microarray) of spleen 6 h after adjuvant administration: sDEGs, hierarchical clustering; assay type: in vivo, C57BL/6 mice; conditions: i.d. administration

## Monophosphoryl lipid A [MPLA]
Liver (LV); fold change <0.667, p<0.01, customized PA call=1
  Number of gene probes with statistically significant changes (sDEGs), LV, Down: 24
Liver (LV); fold change >1.5, p<0.01, customized PA call=1
  Number of gene probes with statistically significant changes (sDEGs), LV, Up: 9
[1]; LV, ID
  IFN alpha, GO annotation line 1 of 5: 0
  IFN alpha, GO annotation line 2 of 5: 0
  IFN alpha: cellular response to interferon-alpha: 0
  IFN alpha: positive regulation of interferon-alpha production: 0
  IFN alpha: regulation of interferon-alpha production: 0
  IFN beta: cellular response to interferon-beta: 0
  IFN beta: interferon-beta production: 0
  IFN beta: positive regulation of interferon-beta production: 0
  IFN beta: regulation of interferon-beta production: 0
  IFN beta: response to interferon-beta: 0
  IFN gamma: cellular response to interferon-gamma: 0
  IFN gamma: interferon-gamma production: 0
  IFN gamma: regulation of interferon-gamma production: 0
  IFN gamma: response to interferon-gamma: 0
  NF-kappa B signaling pathway, GO annotation line 1 of 4: 0
  NF-kappa B signaling pathway, GO annotation line 2 of 4: 0
  NF-kappa B signaling pathway, GO annotation line 3 of 4: 0
  NF-kappa B signaling pathway, GO annotation line 4 of 4: 0
  TNF signaling pathway: 3.93
  adaptive immune response, GO annotation line 1 of 5: 0
  adaptive immune response, GO annotation line 2 of 5: 0
  adaptive immune response, GO annotation line 3 of 5: 0
  adaptive immune response, GO annotation line 4 of 5: 0
  adaptive immune response, GO annotation line 5 of 5: 0
  apoptosis, GO annotation line 1 of 8: 0
  apoptosis, GO annotation line 2 of 8: 0
  apoptosis, GO annotation line 3 of 8: 0
  apoptosis, GO annotation line 4 of 8: 0
  apoptosis, GO annotation line 5 of 8: 0
  apoptosis, GO annotation line 6 of 8: 0
  apoptosis, GO annotation line 7 of 8: 0
  apoptosis, GO annotation line 8 of 8: 0
  cell death, GO annotation line 1 of 9: 0
  cell death, GO annotation line 2 of 9: 0
  cell death, GO annotation line 3 of 9: 0
  cell death, GO annotation line 4 of 9: 0
  cell death, GO annotation line 5 of 9: 0
  cell death, GO annotation line 6 of 9: 0
  cell death, GO annotation line 7 of 9: 0
  cell death, GO annotation line 8 of 9: 0
  cell death, GO annotation line 9 of 9: 0
  chemokine, GO annotation line 1 of 4: 0
  chemokine, GO annotation line 2 of 4: 0
  chemokine, GO annotation line 3 of 4: 0
  chemokine, GO annotation line 4 of 4: 0
  chemotaxis, GO annotation line 1 of 11: 3.38
  chemotaxis, GO annotation line 2 of 11: 0
  chemotaxis, GO annotation line 3 of 11: 0
  chemotaxis, GO annotation line 4 of 11: 0
  chemotaxis, GO annotation line 5 of 11: 0
  chemotaxis, GO annotation line 6 of 11: 0
  chemotaxis, GO annotation line 7 of 11: 0
  chemotaxis, GO annotation line 8 of 11: 0
  chemotaxis, GO annotation line 9 of 11: 0
  chemotaxis, GO annotation line 10 of 11: 0
  chemotaxis, GO annotation line 11 of 11: 0
  cytokine, GO annotation line 1 of 17: 0
  cytokine, GO annotation line 2 of 17: 0
  cytokine, GO annotation line 3 of 17: 0
  cytokine, GO annotation line 4 of 17: 0
  cytokine, GO annotation line 5 of 17: 0
  cytokine, GO annotation line 6 of 17: 0
  cytokine, GO annotation line 7 of 17: 0
  cytokine, GO annotation line 8 of 17: 0
  cytokine, GO annotation line 9 of 17: 0
  cytokine, GO annotation line 10 of 17: 0
  cytokine, GO annotation line 11 of 17: 0
  cytokine, GO annotation line 12 of 17: 0
  cytokine, GO annotation line 13 of 17: 0
  cytokine, GO annotation line 14 of 17: 0
  cytokine, GO annotation line 15 of 17: 0
  cytokine, GO annotation line 16 of 17: 0
  cytokine, GO annotation line 17 of 17: 0
  defense response, GO annotation line 1 of 11: 0
  defense response, GO annotation line 2 of 11: 0
  defense response, GO annotation line 3 of 11: 0
  defense response, GO annotation line 4 of 11: 0
  defense response, GO annotation line 5 of 11: 0
  defense response, GO annotation line 6 of 11: 0
  defense response, GO annotation line 7 of 11: 0
  defense response, GO annotation line 8 of 11: 0
  defense response, GO annotation line 9 of 11: 0
  defense response, GO annotation line 10 of 11: 0
  defense response, GO annotation line 11 of 11: 0
  immune response, GO annotation line 1 of 8: 0
  immune response, GO annotation line 2 of 8: 0
  immune response, GO annotation line 3 of 8: 0
  immune response, GO annotation line 4 of 8: 0
  immune response, GO annotation line 5 of 8: 0
  immune response, GO annotation line 6 of 8: 0
  immune response, GO annotation line 7 of 8: 0
  immune response, GO annotation line 8 of 8: 0
  inflammatory response, GO annotation line 1 of 5: 0
  inflammatory response, GO annotation line 2 of 5: 0
  inflammatory response, GO annotation line 3 of 5: 0
  inflammatory response, GO annotation line 4 of 5: 0
  inflammatory response, GO annotation line 5 of 5: 0
  innate immune response, GO annotation line 1 of 6: 0
  innate immune response, GO annotation line 2 of 6: 0
  innate immune response, GO annotation line 3 of 6: 0
  innate immune response, GO annotation line 4 of 6: 0
  innate immune response, GO annotation line 5 of 6: 0
  innate immune response, GO annotation line 6 of 6: 0
  interleukin-6: interleukin-6 production: 0
  interleukin-6: positive regulation of interleukin-6 production: 0
  interleukin-6: regulation of interleukin-6 production: 0
  interleukin-12: interleukin-12 production: 0
  interleukin-12: positive regulation of interleukin-12 production: 0
  interleukin-12: regulation of interleukin-12 production: 0
  migration, GO annotation line 1 of 10: 0
  migration, GO annotation line 2 of 10: 0
  migration, GO annotation line 3 of 10: 0
  migration, GO annotation line 4 of 10: 0
  migration, GO annotation line 5 of 10: 0
  migration, GO annotation line 6 of 10: 0
  migration, GO annotation line 7 of 10: 0
  migration, GO annotation line 8 of 10: 0
  migration, GO annotation line 9 of 10: 0
  migration, GO annotation line 10 of 10: 0
  stress, GO annotation line 1 of 3: 0
  stress, GO annotation line 2 of 3: 0
  stress, GO annotation line 3 of 3: 0
  wounding, GO annotation line 1 of 3: 0
  wounding, GO annotation line 2 of 3: 0
  wounding, GO annotation line 3 of 3: 0
[1]; i.d., fold change >2
  systemic organ (LV and SP) responses after i.d. local administration: limited responses in LV and SP
Spleen (SP); fold change <0.667, p<0.01, customized PA call=1, 6 h after adjuvant
  Number of gene probes with statistically significant changes (sDEGs), SP, Down: 22
Spleen (SP); fold change >1.5, p<0.01, customized PA call=1, 6 h after adjuvant
  Number of gene probes with statistically significant changes (sDEGs), SP, Up: 9
